Data from US10160972B2, “Methods and materials for treating cancer” (Mayo Foundation for Medical Education and Research, priority 2012, dated 2018).

What was measured:
A498 ccRCC cell line = details: read-out: IC50, decrease in proliferation; A498, day 5
Procedure: (§1) ccRCC cell lines: RWV366T and KIJ265T (16) (both stage IV ccRCC patient tissue derived), A498, Caki1, Caki2, and ACHN (ATCC) and K347N, K355N, K359N, K360N, K365N, and K366N normal renal tissue derived mortal cells (NRE) were cultured in DMEM medium (Cellgro) containing 5% FBS (Hyclone) and 1× penicillin-streptomycin (Invitrogen) at 37° C. in humidified conditions with 5% CO2.
(§2) Cells were plated (0.5 or 1×10^5/well) in 24-well plates for proliferation or treatment assays, in triplicate. Cells were trypsinized (0.25%) and counted using a Coulter Particle Counter at specified time intervals. For SCD1 rescue assays, oleic acid-albumin was added to media at 5 μM. Drug stocks were prepared in DMSO. […] Temsirolimus dosing was performed as described in the text. Soft agar cultures were prepared by diluting 2× growth medium 1:1 in 1.5% Seaplaque®GTG® agarose, with 500 cells/plate in 60 mm culture dishes. Colonies were stained with Giemsa (LabChem Inc.) and counted after 3 wks. Cell images were obtained with an OlympusIX71 microscope at 20× magnification.

ACHN ccRCC cell line = details: read-out: IC50, decrease in proliferation, day 5
Procedure: as §1, §2

Caki1 ccRCC cell line = details: read-out: IC50, decrease in proliferation; Caki1, day 5
Procedure: as §1, §2

Caki2 ccRCC cell line = details: read-out: IC50, decrease in proliferation; Caki2, day 5
Procedure: as §1, §2

[1] = system: Caki1, A498, Caki2, and ACHN ccRCC cell lines; test: PARP cleavage western blot (apoptosis); format: cell-based, human
Procedure: Protein extracts, electrophoresis, and membrane transfers were prepared as previously described (Copland J A, Marlow L A, Kurakata S, Fujiwara K, Wong A K, Kreinest P A, et al. Novel highaffinity PPARgamma agonist alone and in combination with paclitaxel inhibits human anaplastic thyroid carcinoma tumor growth via p21WAF1/CIP1. Oncogene. 2006; 25:2304-17). Primary antibodies included SCD1, PARP, DDIT3, BiP, sXBP1, and β-actin. A Supersignal chemiluminescent kit was used to perform detection.

A498 cells = test: qPCR of five ER stress genes; format: cell-based, human
Procedure: (§3) An RNAqueous Midi Kit was utilized to extract and purify RNA from cell lines. Human tissue RNA was prepared using TRIzol® per manufacturer's protocol followed by purification using the RNAqueous Midi Kit. The O.D. 260/280 ratio of the mRNA was at least 1.8 and the 18s/28s bands were verified on a 1% agarose gel. cDNA was prepared from purified RNA samples using High Capacity cDNA Reverse Transcriptase Kit per manufacturer's instruction. TaqMan®Fast Universal PCR Master Mix and TaqMan®FAMTM dye-labeled probes including POLR2A (Hs00172187_m1) (normalization control), SCD1 (Hs01682761_m1), HSPA5 (Hs99999174_m1), CEBPβ (CEBPB Hs00270923_s1), GADD45A (Hs00169255_m1), DDIT3 (Hs01090850_m1), and HERPUD1 (Hs01124269_m1) were combined with prepared cDNA samples to analyze relative mRNA expression via qPCR. Fold change values were compared between normal and tumor, non-target scrambled lentiviral and target lentiviral infected, and DMSO vs. A939572 treated samples using the ΔΔCt method (Schmittgen T D, Livak K J. Analyzing real-time PCR data by the comparative C(T) method. Nat Protoc. 2008; 3:1101-8).
(§4) In order to validate the specificity of ER stress induction mediated by both A939572 and shSCD780, rescue assays were performed using OA-BSA in Caki1 and A498 cells qPCR analysis of five ER stress genes identified in the gene array including BiP, CHOP, HERPUD1 (homocysteine-inducible, ER-stress inducible, ubiquitin-like-1), GADD45a (DNA damage inducible transcript 1, DDIT1), and CEBPβ (CCAAT/enhancer binding protein beta) were examined.

Caki1 cells = test: qPCR of five ER stress genes; format: cell-based, human
Procedure: as §3, §4

A375 melanoma cells = test: Cell number growth inhibition assay; format: cell-based, human
Procedure: (§5) A number of cancer cell lines were tested to determine whether SCD1 protein expression correlates with growth inhibition of an SCD1 inhibitor in human cancer cell lines.
(§6) Cells (20,000/ml) were plated in 12 well cell culture plates, allowed to attach and treated with the indicated dose of SCD1 inhibitor ([…]) or standard of care (gemcitabine). Cell number was counted using a Coulter Counter. As show in FIG. 7, the data are expressed as percent of DMSO control. Each value represents triplicates. Western analysis for SCD1 protein expression was performed on each cell line with beta-actin as the loading control.
(§7) The following cell lines were studied using a similar method as that described above.

[2] = system: A549 nonsmall cell lung cancer cells; test: Cell number growth inhibition assay; format: cell-based, human
Procedure: as §5, §6, §7

[3] = system: BCJ4T bladder cancer cells; test: Cell number growth inhibition assay; format: cell-based, human
Procedure: as §5, §6, §7

[4] = system: HOV TAX2 ovarian cancer cells; test: Cell number growth inhibition assay; format: cell-based, human
Procedure: as §5, §6, §7

[5] = system: HT1376 bladder cancer cells; test: Cell number growth inhibition assay; format: cell-based, human
Procedure: as §5, §6, §7

HT29 colon cancer cells = test: Cell number growth inhibition assay; format: cell-based, human
Procedure: as §5, §6, §7

[6] = system: KTC3 thyroid cancer cells; test: Cell number growth inhibition assay; format: cell-based, human
Procedure: as §5, §6, §7

[7] = system: LNCAP prostate cancer cells; test: Cell number growth inhibition assay; format: cell-based, human
Procedure: as §5, §6, §7

Mela 11 melanoma cells = test: Cell number growth inhibition assay; format: cell-based, human
Procedure: as §5, §6, §7

[8] = system: OVCA420 ovarian cancer cells; test: Cell number growth inhibition assay; format: cell-based, human
Procedure: as §5, §6, §7

A498 ccRCC xenografts = test: IHC analysis of resected xenograft tumors
Procedure: The TMAs were mounted on slides from paraffin-embedded blocks according to IHC procedure and samples were blocked with Diluent that contained Background Reducing Components (Dakocytomation) for 30 min and then probed for SCD1, Ki67, Caspase-3, CD31, phospho-mTOR, DDIT3, and XBP1. […] Stain scoring was done using algorithms generated with Imagescope software created by a histologist. H-scores were calculated based upon signal intensity (0-3+) using the formula: [(1+%×1)+(2+%×2)+(3+%×3)], intensity (I)-scores were calculated by dividing signal intensity by area, and nuclear (N)-scores were calculated by dividing % positive nuclei by total nuclei examined per area. Cases where insufficient tumor tissue presented were excluded from the study. 20× images were obtained using Scanscope XT and Imagescope software.
IHC analysis of tumors resected from each treatment group was analyzed for proliferation, angiogenesis, and cell death (FIG. 6B).

[9] = system: ATF6 luciferase reporter in Caki1 cells
Procedure: For transient transfection, Caki1 and A498 cells were transfected using Lipofectamine 2000. Cells treated with DMSO vs. A939572 or infected using shSCD780 lentiviral constructs vs. NT control were harvested after 48 hrs using Promega's Dual Luciferase assay kit per the manufacturer's protocol and luciferase activity was measured using a Veritas Luminometer; reported as relative luminescence.
Caki1 and A498 cells transfected with an ATF6 luciferase reporter (p5xATF6-GL3) were treated with a 75 nM dose of A939572 or were infected with shSCD780. Resulting luminescence was measured after 48 hours.

Compound: CNC(=O)c1cccc(NC(=O)N2CCC(Oc3ccccc3Cl)CC2)c1 [A939572]
- IC50 (A498 ccRCC cell line): 50 nM
- IC50 (ACHN ccRCC cell line): 6 nM
- IC50 (Caki1 ccRCC cell line): 65 nM
- IC50 (Caki2 ccRCC cell line): 65 nM
- apoptosis by PARP cleavage with addition of OA-BSA ([1]; A939572 + OA-BSA): blocked apoptosis
- apoptosis by PARP cleavage ([1]; western blot, all four cell lines): induced apoptosis
- ER stress gene expression with addition of OA-BSA (A498 cells; A498, + OA-BSA): blocked
- mRNA expression of ER stress genes BiP, CHOP, HERPUD1, GADD45a, CEBPβ (A498 cells; A498, vs DMSO+BSA or NT control): significantly increased levels
- ER stress gene expression with addition of OA-BSA (Caki1 cells; Caki1, + OA-BSA): blocked
- mRNA expression of ER stress genes BiP, CHOP, HERPUD1, GADD45a, CEBPβ (Caki1 cells; Caki1, vs DMSO+BSA or NT control): significantly increased levels
- growth inhibition (A375 melanoma cells): growth inhibited in a dose dependent fashion
- IC50 (A375 melanoma cells; read-out: estimated IC50 concentration, growth inhibition): ~50 nM
- growth inhibition [2]: growth inhibited in a dose dependent fashion
- growth inhibition [3]: not growth inhibited
- growth inhibition [4]: growth inhibited in a dose dependent fashion
- growth inhibition [5]: growth inhibited in a dose dependent fashion
- growth inhibition (HT29 colon cancer cells): growth inhibited in a dose dependent fashion
- growth inhibition [6]: growth inhibited in a dose dependent fashion
- growth inhibition [7]: growth inhibited in a dose dependent fashion
- growth inhibition (Mela 11 melanoma cells): not growth inhibited
- growth inhibition [8]: growth inhibited in a dose dependent fashion
- cell death, cleaved caspase-3 (CC3) (A498 ccRCC xenografts; vs placebo / other groups): moderate increase
- proliferation, percent positivity of nuclear Ki67 staining (A498 ccRCC xenografts; vs placebo control): decreased proliferation
- reporter activation with addition of OA-BSA ([9]; Caki1, + OA-BSA): significantly reduced reporter activation
- luciferase activity, fold change induction ([9]; Caki1, +BSA, 75 nM A939572 or shSCD780, 48 hours, vs DMSO and NT controls): 1.6 fold change
